{"source": "paper PMC12580772", "about": "“A First-in-Human Study of ATM Inhibitor Lartesertib as Monotherapy in Patients with Advanced Solid Tumors” (Clinical Cancer Research, 2025)", "origin": "cited, not measured here", "tested_on": "patient-derived xenograft models of triple-negative breast cancer", "set-up": "method as in PMID 37079339", "conditions": "single-agent gartisertib; cited from earlier work", "data": [{"smiles": "Nc1nn2cc(F)cnc2c1C(=O)Nc1cncc(F)c1N1CCC(C(=O)N2CCN(C3COC3)CC2)CC1", "note": "[gartisertib, reference compound]", "values": [{"measurement": "Tumor control rate", "result": 27, "unit": "%"}]}]}
